Assay results reported in patent US20250009660A1, “LIPID COMPOUND, LIPOSOME, EXOSOME, LIPID NANOPARTICLE, AND DRUG DELIVERY SYSTEM” (NAGASAKI UNIVERSITY, priority 2021, published 2025).
Entries after “also recorded” stand apart in the source; their conditions may differ.

Key:
NIH3T3 = assay: Evaluation of cell binding properties / cell uptake of modified liposome; type: cell-based, Mouse; settings: NIH3T3 cells; for cell uptake (cell binding properties): rhodamine-labeled liposome modified with the lipid compound (FIG. 13)
Excerpt: (§1) The liposome was modified with a lipid compound by a post-modification method using NanoAssemblr (nano pharmaceutical production apparatus; manufactured by Precision NanoSystems Inc.).

C26 = assay: as above; type: cell-based, Mouse; settings: C26 cells; for cell uptake (cell binding properties): rhodamine-labeled liposome modified with the lipid compound (FIG. 13)
Excerpt: as §1

[1] = liposome modified with the lipid, compared with KK-(EK)4 lipid-modified liposome (FIG. 15)

Row | Substance | cell uptake (cell binding properties) (NIH3T3) | cell uptake (cell binding properties) (C26) | cell binding properties (NIH3T3; [1]) | cell binding properties (C26; [1])
1 | K-(EK)4-dipalmitoyllysine [K1] | an increase in cell uptake was observed compared with the unmodified liposome | an increase in cell uptake was observed compared with the unmodified liposome | – | –
2 | KK-(EK)4-dipalmitoyllysine [K2] | an increase in cell uptake was observed compared with the unmodified liposome; also recorded: In comparison with K1, the uptake of K2 increased in all of the cells | an increase in cell uptake was observed compared with the unmodified liposome; also recorded: In comparison with K1, the uptake of K2 increased in all of the cells | – | –
3 | KKK-(EK)4-dipalmitoyllysine [K3] | an increase in cell uptake was observed compared with the unmodified liposome; also recorded: the uptake of K3 and K4 when compared with K2 was the same | an increase in cell uptake was observed compared with the unmodified liposome; also recorded: the uptake of K3 and K4 when compared with K2 was the same | – | –
4 | KKKK-(EK)4-dipalmitoyllysine [K4] | an increase in cell uptake was observed compared with the unmodified liposome; also recorded: the uptake of K3 and K4 when compared with K2 was the same | an increase in cell uptake was observed compared with the unmodified liposome; also recorded: the uptake of K3 and K4 when compared with K2 was the same | – | –
5 | RR-(EK)4-dipalmitoyllysine [RR-(EK)4 lipid] | – | – | the same cell binding properties were exhibited | the same cell binding properties were exhibited
